According to patent US20230181905A1, “Systems, Devices, and Methods for Enhancing the Neuroprotective Effects of Non-Invasive Gamma Stimulation with Pharmacological Agents” (Massachusetts Institute of Technology, priority 2021, published 2023):

How the values were obtained:
Assay type in all cases: in vivo, mouse
C1q = C1q signal intensity immunohistochemistry; conditions: 5×FAD mice
Description: Elevated expression of C1q is observed in both human AD and mouse models of AD, and further such an elevated expression is closely associated with the elimination of synapses in microglia. In addition, MHC2 expression is increased in the AD brain. Therefore, to test whether these treatments, that improved synaptic density, had any effect on these neuroinflammatory markers, C1q (Abcam, #ab182451) and MHC2 (EMD Millipore, #MABF33) levels (FIGS. 5A-5D) were examined.
C1q and MHC2 signal intensity: Using an LSM 710 with a 20× or 40× objectives, z stacks of the entire slice thickness […] (40 images from each field) were acquired. The signal intensity was measured.
C1q and MHC2 signal intensity: Using an LSM 710 with a 20× or 40× objectives, z stacks of the entire slice thickness […] (40 images from each field) were acquired. The signal intensity was measured in Imaris.

D54D2 positive amyloid = assay: D54D2 amyloid immunohistochemistry in 5×FAD mice
Description: It was next sought to understand whether Plx3397 administration-dependent electrophysiological alterations were attributed to changes in amyloid plaque levels. […] In the cuprizone model of demyelination, Plx33977 administration preserved myelin. It was thus considered whether electrophysiological alterations are associated with myelin levels in Plx3397 treated 5×FAD mice.

CK-p25 mice = assay: Novel object recognition test in CK-p25 mice
Experimental: Given the neuroprotective effect of Plx3397+GENUS treatment, whether this treatment also impacted learning and memory was evaluated. Mice were tested in an open field (OF) and assessed for changes in anxiety and activity levels, followed by a novel object recognition (NOR) test of memory. 10-month-1d 5×FAD mice were treated with Plx3397. Following 20 days administration of Plx3397 chow, untreated- and Plx3397 treated 5×FAD mice (which continued PLX administration) were subjected to 30 days of daily GENUS. Mice were tested in OF and NOR during the last week of these treatments. […] Next, CK-p25 mice were treated for 42 days and assessed behavioral performance.
For OF, mice were introduced into an open field box (dimensions: length=460 mm, width=460 mm and height=400 mm; TSE-Systems) and were tracked using Noldus (Ethovision) for 12 min, with time spent in the center and peripheral area of the arena measured. […] Mouse behavior was monitored for 7 min. Time spent exploring both the familiar and novel objects was recorded using Noldus and computed offline. Percentage of novelty preference index was calculated as follows: time exploring novel object (Nt) divided by total time exploring novel and familiar (Ft) objects and presented in %−{[Nt/Nt+Ft]*100}. […]

GFAP+ astrocytes = assay: GFAP+ astrocyte immunohistochemistry; conditions: 5×FAD mice; Plx3397 diet 50 days vs control
Experimental: (§1) To study how CSF1R-sensitive microglia impact neural activity in the context of AD, an amyloidosis mouse model, the 5×FAD mice—which is a most commonly used mouse model for AD, was subject to a diet containing CSF1R inhibitor Plx3397 for 50 days (FIG. 21A). The CSF1R inhibitor Plx3397 (600 ppm) was employed, which was previously shown to effectively reduce microglia in vivo. Control mice were age-matched 5×FAD litters that received a regular diet. Electrophysiological recordings were performed using linear probes. Post-recording, the recording site in the visual cortex was verified by histology (FIG. 21), and microglia reduction was evaluated by assessing IBA1+ cell numbers.
Antibodies: IBA1 (Synaptic Systems, Cat #234 004, dilution-1:500; Wako Chemicals, Cat #019-19741, dilution-1:500), GFAP (Thermo Fisher Scientific, Cat #130300, dilution-1:500), MEF2C (Cell Signaling Technology, Cat #5030T), MAC2 (Cedarlane Labs, Cat #CL8942AP, dilution-1:500), vGAT (Synaptic Systems, Cat #131 013, dilution-1:500), vGLUT (Synaptic Systems, Cat #1135 302, dilution-1:500), NeuN (Synaptic Systems, Cat #266 004, dilution-1:1000), MHC2 (EMD Millipore, Cat #MABF33, dilution-1:500), C1q (Abcam, Cat #ab182451, dilution-1:500), synaptophysin (Sigma, Cat #S5768). […]

[1] = test system: CSF1R resistant progenitor-like MAC2+ microglia; assay: MAC2+ microglia immunohistochemistry; conditions: 5×FAD mice; Plx3397 diet 50 days vs control
Experimental: as §1
Microglia: Iba1 immunoreactive cells were considered microglia. Using an LSM 710 or LSM 880 with a 10× (for Iba1+ cell counts) or 40× (for morphological analysis) objective z stacks of the entire slice thickness […] with […] step size were acquired. Imaris was used for 3D rendering of images to quantify the total volume of microglia. MAC2+ cells were counted manually using Image J.

[2] = hippocampus, chronic Plx3397 vs control

Compound: FC(F)(F)c1ccc(CNc2ccc(Cc3c[nH]c4ncc(Cl)cc34)cn2)cn1 [Plx3397, Pexidartinib]
- C1q levels (C1q; [2]): reduced
- C1q (C1q; visual cortex, Plx3397 50 days): 22040955±1586416 au
- amyloid (D54D2 positive amyloid; [2]): did not affect
- amyloid levels (D54D2 positive amyloid signal) (D54D2 positive amyloid; visual cortex, chronic Plx3397, not affected vs control): 9894±1181 au
- novel object recognition memory in the NOR test (CK-p25 mice; CK-p25 mice treated for 42 days): significantly improved
- novel object recognition memory in the NOR test (novelty index) (CK-p25 mice; CK-p25 mice, control 54.82±3.70): 70.52±2.89
- GFAP+ astrocytes (GFAP+ astrocytes): no difference
- CSF1R resistant progenitor-like MAC2+ microglia [1]: no difference
